Laboratory results published in paper PMC3826262 (MedChemComm, 2013).
Non-standard residues stand in square brackets, D forms with d. Residues, ends and D or L forms follow the SMILES beside them. *: point of attachment. Cbz = O=C(OCc1ccccc1)*; Dap = NC[C@H](N)C(=O)O

Assays:
NVPro = NVPro (Norovirus, UniProt Q83883); assay: Inhibition of recombinant NVPro; type: biochemical; conditions: for Ki: Table 1, recombinant NVPro; for fold less active than compound 1: ratio of Ki vs compound 1
HOVPro = HOVPro (Norovirus Hu/Houston/TCH186/2002/US (Norovirus GII.4), UniProt A9YYE3); assay: Inhibition of Houston virus protease; type: biochemical; conditions: HOVPro vs NVPro Ki

SMILES	Ki (NVPro)	fold less active than compound 1 (NVPro; NVPro)	inhibitory activity against NVPro (NVPro; NVPro)	further results
CC(C)C[C@H](NC(=O)OCc1ccccc1)C(=O)N[C@@H](Cc1ccccc1)C(=O)N[C@H](C=O)CCC(=O)NC1CC1 [compound 15]	–	–	–	fold improved inhibition as compared to compound 14 (NVPro; NVPro, ratio of Ki): ~ 3 fold
CC(=O)NC[C@@H](C=O)NC(=O)[C@H](Cc1ccccc1)NC(=O)[C@H](CC(C)C)NC(=O)OCc1ccccc1 [compound 3] (Cbz-Leu-Phe-[Dap](Ac)-aldehyde)	–	~ 12 fold	–	–
CC(=O)[C@H](CCC(=O)N(C)C)NC(=O)[C@H](Cc1ccccc1)NC(=O)[C@H](CC(C)C)NC(=O)OCc1ccccc1 [compound 10]	–	1,200 fold	–	–
CC(=O)N[C@@H](CC(C)C)C(=O)N[C@@H](Cc1ccccc1)C(=O)N[C@H](C=O)CCC(=O)N(C)C [compound 9] (Ac-Leu-Phe-Glu(NMe2)-aldehyde)	–	> 300 fold	–	–
CCOC(=O)/C=C/[C@H](CCC(N)=O)NC(=O)[C@H](Cc1ccccc1)NC(=O)[C@H](CC(C)C)NC(=O)OCc1ccccc1 [compound 12]	inactive	–	Neither 12 nor 13 exhibits inhibitory activity	–
CC(C)C[C@H](NC(=O)OCc1ccccc1)C(=O)N[C@@H](Cc1ccccc1)C(=O)N[C@H](C=O)CCC(=O)N(C)C [compound 1, Z-Leu-Phe-Gln(diMe)-CHO] (Cbz-Leu-Phe-Glu(NMe2)-aldehyde)	–	–	–	fold activity reduction against HOVPro as compared with NVPro (HOVPro): > 60 fold; fold more active than compound 8 (NVPro; NVPro, ratio of Ki): 380 fold; fold more active than compounds 5 and 2 (NVPro; NVPro, ratio of Ki): 3-5 fold
CCOC(=O)/C=C/[C@H](CCC(=O)N(C)C)NC(=O)[C@H](Cc1ccccc1)NC(=O)[C@H](CC(C)C)NC(=O)OCc1ccccc1 [compound 11]	inactive	–	essentially inactive	–

Now from value to compound, other results behind:

Ki (NVPro)	fold less active than compound 1 (NVPro; NVPro)	SMILES	inhibitory activity against NVPro (NVPro; NVPro)	further results
inactive	–	CCOC(=O)/C=C/[C@H](CNC(C)=O)NC(=O)[C@H](Cc1ccccc1)NC(=O)[C@H](CC(C)C)NC(=O)OCc1ccccc1 [compound 13]	Neither 12 nor 13 exhibits inhibitory activity	–
–	42 fold	CNC(=O)CC[C@@H](C=O)NC(=O)[C@H](Cc1ccccc1)NC(=O)[C@H](CC(C)C)NC(=O)OCc1ccccc1 [compound 14] (Cbz-Leu-Phe-Glu(NHMe)-aldehyde)	–	–
